The text below walks through data of the METLIN SMRT retention time set (Domingo-Almenara et al. 2019).

The nature of this data set: gradient 5% acetonitrile 3 min, to 50% in 2 min, to 85% in 15 min, held 3 min, 100 µL/min. The following applies: column: Zorbax Extend-C18 2.1 x 50 mm; eluents: water / acetonitrile, 0.1% formic acid. Put shortly:
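The mobile phases were water and acetonitrile, each with 0.1% formic acid, pumped at 100 μL/min through a Zorbax Extend-C18 column (2.1 × 50 mm, 1.8 μm). Pure standards were injected as mixtures of ~100 molecules and detected by a quadrupole time-of-flight mass spectrometer in positive and negative ionization mode. Retention time came from computationally picked adduct peaks, each inspected by hand.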
`CCCCN(C)C(=O)c1ccc2c(c1)Sc1ncccc1C(=O)N2C(C)C` yielded an RP-LC retention time of 804 s. Then `O=C(NCCn1nc(-n2ccnc2)ccc1=O)c1cccc(-n2cnnn2)c1`, with 521 s; and `CC1(C)O[C@@H]2C[C@H]3[C@@H]4CCC5=CC(=O)C=C[C@]5(C)[C@H]4[C@@H](O)C[C@]3(C)[C@]2(C(=O)CO)O1`, with 814 s.

As to `Nc1ncnc2c1cnn2C1CCCCC1`, the RP-LC retention time was found to be 672 s. In turn, `CC(C)(C)c1ccc(-c2nc3ccccc3[nH]2)cc1` yielded an RP-LC retention time of 702 s. With `COc1ccccc1CNCc1ccc2c(c1)n(C)c(=O)n2C` the figure was 591 s; with `COc1ccc(NC(=O)Nc2cc(F)c3nc(N4CCOCC4)ccc3c2)cc1OC`, 938 s. With `CCCCN1CCN(C(=O)c2ccc(-c3ccnc(N4CCCC4)n3)cc2)CC1` the figure was 573 s.

In the case of `Cc1ccc(S(=O)(=O)Nc2cc(-c3cn4ccccc4n3)ccc2C)cc1`, the RP-LC retention time turned out to be 668 s. On to `Cc1ccc(-c2nc3cnccn3c2NCCC(=O)N2CCC(N3CCCCC3)CC2)cc1`, for which the RP-LC retention time turned out to be 598 s. Then `O=C(C1CCN(c2nc(-c3ccc(Cl)cc3)no2)CC1)N1CCC(N2CCCCC2)CC1`, with 701 s; and `Cc1ccc(-c2nnc(-c3nc(N4CCCCC4C)c4ccccc4n3)o2)cc1` (stereo not given), with 1260 s. With `CCNC(=O)N1CCCC(c2cccc(C(=O)NCc3ccccc3C)c2)C1` (stereo not given) the figure was 775 s. With `O=S(=O)(c1ccc(Br)cc1)N1CCNCC1` the figure was 549 s.

Consider `Cc1ccc(N2CC(c3nc(-c4ccc5c(c4)OCO5)no3)CC2=O)c(C)c1` (stereo not given), for which the RP-LC retention time amounted to 911 s. As to `COc1ccc(OC)c(NC(=O)NCC(c2cccnc2)c2c[nH]c3ccccc23)c1` (stereo not given), the RP-LC retention time was determined as 662 s.

As to `Cc1cc(Cl)ccc1OCc1nc(-c2ccc(NS(C)(=O)=O)cc2)no1`, the RP-LC retention time was 1060 s. With `CC(C)NC(=O)c1ccc(OCC2CCN(C(=O)c3cccc(Cl)c3)CC2)cc1` the figure was 899 s. As for `CC(C)(C)NC[C@@H](O)COc1cccc2c1CCCC2=O`, the RP-LC retention time was determined as 689 s. The compound `Cc1ccc(NC(=O)c2cn3c(n2)CCCC3)cc1` showed an RP-LC retention time of 606 s. With `O=C(c1cccc(N2C(=O)CCS2(=O)=O)c1)N1CCN(c2ccccn2)CC1` the figure was 726 s; with `CCCOCCOC(=O)C1=C(C)NC2=C(C(=O)CC(C)(C)C2)C1c1cccc(OC)c1OC` (stereo not given), 875 s.

Consider `O=S(=O)(CCOc1ccc(F)cc1)Nc1cccnc1`, for which the RP-LC retention time was found to be 627 s. Then `COc1ccccc1N1CCN(C(=O)c2cn3cc(Cl)ccc3n2)CC1`, with 858 s; and `CC1CCN(C(=O)C2=NNc3ccccc3S2(=O)=O)CC1`, with 740 s; and `COc1ccc(S(=O)(=O)N2CCCC(Cn3c(C)nc4cccnc43)C2)cc1` (stereo not given), with 688 s. `CCCC(=O)Nc1ccc2c(c1)CC(C(=O)NCCOC)CO2` (stereo not given) gave an RP-LC retention time of 646 s. With `CCc1nc(-c2ccc3c(c2)CCN3C(=O)Cc2ccc(NC(C)=O)cc2)no1` the figure was 796 s; with `CNC(=O)c1nc(N2CCSCC2)c2cnn(C)c2n1`, 632 s. On to `CCCNC(=O)CN1C(=O)CCCc2cc(S(=O)(=O)N3CCCCCC3)ccc21`, for which the RP-LC retention time came to 803 s. With `Cn1nnc2ccc(-c3noc(CNC(=O)c4cccs4)n3)cc21` the figure was 712 s; with `Cc1ccc(Nc2c(-c3ccc(N(C)C)cc3)nc3cnccn23)cc1Cl`, 958 s. With `Cn1cnc(S(=O)(=O)N2CC(Oc3ccccc3-c3nc(-c4ccccc4)no3)C2)c1` the figure was 915 s. With `O=C(NCCc1c[nH]c2ccccc12)c1noc2c1CCc1sccc1-2` the figure was 1050 s. `O=C(CCc1nnc2c3cc(-c4ccc(F)cc4)nn3ccn12)NCc1ccc(Cl)cc1`: the RP-LC retention time was determined as 822 s. Compound `Cc1ccc(-n2c(=O)c3c(cc(C)n3C)n(CC(=O)Nc3cccc(Br)c3)c2=O)cc1` showed an RP-LC retention time of 883 s.

On to `CCN1C(=O)c2ccccc2Oc2ccc(C(=O)NC(C)Cc3ccco3)cc21` (stereo not given), for which the RP-LC retention time is 929 s. Turning to `COc1ccc(-c2noc(C3CCCN3C(=O)c3ccc(Cl)cc3OC)n2)cc1OC` (stereo not given), the RP-LC retention time was 934 s. Turning to `O=C(CSc1c(-c2ccccc2)[nH]c2ccccc12)NCC1CCCO1` (stereo not given), the RP-LC retention time turned out to be 753 s. `Cc1nc(CC(=O)Nc2nc(-c3ccc(-c4ccccc4)cc3)cs2)cs1` registered an RP-LC retention time of 1160 s. `CC(C)(C)c1ccc(NC(=O)N2CCN(CCNC(=O)c3cccs3)CC2)cc1` gave an RP-LC retention time of 616 s. Then `O=C(c1ccco1)N1CCN(S(=O)(=O)c2cccc(-c3nc(-c4ccccc4)no3)c2)CC1`, with 1060 s.

As to `Cc1ccc(-c2nnc(-c3ccc(N4CCC(C)CC4)nc3)o2)cc1`, the RP-LC retention time was found to be 1310 s. With `COc1cc(NC(=O)C2CC(=O)N(c3ccc4c(c3)CCN4C(C)=O)C2)cc(OC)c1` (stereo not given) the figure was 694 s.

For the compound `CSc1ccc(CNC(=O)CN2CCc3ccccc3C2C(=O)N2CCCCC2)cc1` (stereo not given), the RP-LC retention time came out at 889 s. Compound `Cc1ccc(NC(=O)C2CCN(C(=O)c3ncn4c3COC(c3ccccc3)C4)CC2)cc1C` (stereo not given) yielded an RP-LC retention time of 796 s. With `COc1ccccc1C(=O)NCCn1cc(SCC(N)=O)c2ccccc21` the figure was 680 s.

`CCC(=O)N1CCCC1c1nc2ccccc2n1CC(=O)OC` (stereo not given) yielded an RP-LC retention time of 592 s.

`CCN(CC)CCNC(=O)C1CCCN(c2ccc(-c3ccc(C)cc3)nn2)C1` (stereo not given) yielded an RP-LC retention time of 590 s. With `CC(=O)N1CCN(c2cc(-c3nc(-c4cccc(F)c4)no3)c3ccccc3n2)CC1` the figure was 1090 s.

`Cc1ccc(C(=O)NC2CCN(c3nnc4ccc(C(F)(F)F)cn34)CC2)cc1` registered an RP-LC retention time of 802 s.

Compound `CCNc1cc(N2CCC(CCC(=O)NCc3cccc(C)c3)CC2)ncn1` gave an RP-LC retention time of 659 s. `O=C(NCc1ccccc1Cl)C1CCN(S(=O)(=O)c2cc(C(=O)N3CCCC3)cs2)CC1`: the RP-LC retention time came out at 815 s. With `O=C(c1cccc2[nH]ccc12)N1CCN(c2cc(-c3cccs3)[nH]n2)CC1` the figure was 832 s; with `COC(=O)c1ccc(Nc2c(C(=O)N3CCCC3)cnc3nc(C)ccc23)cc1`, 598 s.

Compound `Cc1c(-c2nn3c(Cc4ccccc4)nnc3s2)nnn1-c1ccccc1` came in with an RP-LC retention time of 939 s. Then `Cc1cccc(NC(=O)Nc2nc(C(=O)NCc3cccs3)cs2)c1`, with 794 s; and `O=C(Nc1nnc(SCc2nnc(-c3ccccc3)o2)s1)c1ccc(Br)o1`, with 870 s; and `CCc1cccc(NS(=O)(=O)c2cc3n(c2)CCCNC3=O)c1`, with 690 s. In turn, `CN(C)S(=O)(=O)Nc1ccccn1` came in with an RP-LC retention time of 630 s. In turn, `COc1ccc2ncc(S(=O)(=O)c3ccc(C)c(C)c3)c(N3CCN(C)CC3)c2c1` came in with an RP-LC retention time of 654 s. The compound `CCC(=O)N1CCN(c2ccc(=O)n(-c3ccc(C(C)C)cc3)n2)CC1` showed an RP-LC retention time of 780 s. Regarding `Cc1ccc(NC(=O)CSc2cc(N3CCCCC3)ncn2)cc1Cl`, the RP-LC retention time worked out at 1050 s.

For the compound `COCCOCc1nc(C2CCN(S(=O)(=O)c3cc(F)ccc3F)C2)no1` (stereo not given), the RP-LC retention time was 817 s. Regarding `CCn1nc(C)c2ccn(CC(=O)NCc3ccc(Br)cc3)c(=O)c21`, the RP-LC retention time is 797 s. With `CCc1cc(C(=O)Nc2ccc(OC)c(OC)c2)nc2cc(-c3ccco3)nn12` the figure was 1030 s. With `O=c1ccc(-c2cccc(Cl)c2)nn1CCc1nc(-c2cccnc2)no1` the figure was 805 s.

For `CCN(CC)S(=O)(=O)c1ccc2c(c1)N(CC(=O)NCCc1ccco1)C(=O)C1CCCCN21` (stereo not given), the RP-LC retention time was 693 s.

As to `CCN(CC)CCNC(=O)C1CCN(C2=NS(=O)(=O)C(c3ccc(C)c(C)c3)=C2C)CC1`, the RP-LC retention time stood at 666 s. With `Cc1noc2ncn(CC(=O)Nc3ccc(F)cc3F)c(=O)c12` the figure was 744 s.

The compound `CC(C)C(=O)N1CCN(c2ccc(Nc3c4c(nc5nc(-c6ccccc6)nn35)CCCC4)cc2)CC1` displayed an RP-LC retention time of 898 s. `CCc1ccc(C(=O)NCCc2nc3cccnc3n2C(C)C)cc1` yielded an RP-LC retention time of 717 s. Then `CCCN(C(=O)C1CCCN(c2ncnc3c2nc2n3CCCCC2)C1)c1ccccc1C` (stereo not given), with 1000 s. Turning to `O=C(Cn1cccc1-c1nc(-c2ccc(Cl)cc2)cs1)NCc1ccccn1`, the RP-LC retention time turned out to be 795 s. Compound `CC(C)CC(=O)N1CCCC1c1nc2ccccc2s1` (stereo not given) yielded an RP-LC retention time of 887 s. Then `CCC1CCCCN1C(=O)c1cnc2nc(C)ccc2c1Nc1ccc(OC)cc1C` (stereo not given), with 692 s; and `CCCCNC(=O)C1CCCN(c2nnc3ccc(Cl)cn23)C1` (stereo not given), with 704 s. With `Cn1cc(CC(=O)NCc2cc(F)ccc2F)c2cccnc21` the figure was 683 s; with `CN(C)C(=O)c1nc2ccccn2c1-c1ccc(Cl)cc1`, 674 s. Then `COc1ccc(CNC(=O)c2ccc3c(c2)N(C)C(=O)C2CCCCN32)c(OC)c1` (stereo not given), with 868 s.
